Test results as given in patent US8664230B2, “Pyridopyrimidine derivatives and use thereof” (The Asan Foundation, priority 2011, dated 2014).

What was measured:
Experiment in all cases: PI3 Kinase Activity/Inhibitor Assay (Millipore kit, competitive ELISA)
Type in all cases: biochemical
[1] = molecular target: PI3Kα (Homo sapiens (Human), UniProt P42336)
Excerpt: (§1) The PI3 Kinase Activity/Inhibitor Assay Kit was purchased from Millipore. The dimethylsulfoxide was purchased from Sigma-Aldrich.
(§2) The PI3 Kinase Activity/Inhibitor Assay is a competitive assay used for the fast and sensitive quantitation of activity of the four class I PI3 kinases (p110 α, β, γ, δ). The PI3 Kinase Activity/Inhibitor Assay works on the principle that PI3 Kinase phosphorylates P1(3,4)P2 (PIP2), converting it to PI(3,4,5)P3 (PIP3). The PH domain of the protein GRP-1 binds PIP3 with high affinity and specificity. The kit includes this recombinant protein that is used as the capture protein. This protein binds to the glutathione plate and captures either the PIP3 generated as part of the kinase reaction or the biotinylated-PIP3 tracer included in the kit. The captured biotinylated-PIP3 is detected using streptavidin-HRP conjugate and a colorimetric read out (OD 450). The lower the signal, the higher the PI3 Kinase activity.
(§3) PI3-Kinase included in the Kit was diluted at the ratio of 1:10 with distilled water and stored on ice. The compound was prepared by diluting the stock compound to 100× of the final concentration and then diluted again at the ratio of 1:50 to make 2× of the final concentration with distilled water.
(§4) The prepared PI3-Kinase (5 μL/well) and the compound (5 μL/well) were added to Glutathione-Coated Plate and pre-incubated at room temperature for 10 minutes. After adding 5 μL of 5× Kinase reaction buffer per well, PIP2 was diluted at the ratio of 1:20 with distilled water and 5 μL were added into each well. Distilled water was added up to 25 μL, and the reaction mixture was incubated at room temperature for an hour. Biotinylated-PIP3 was diluted at the ratio of 1:18 with 1×TBS solution and 25 μL of the mixture were put in each well excluding the buffer control well. GRP1-GST was diluted at the ratio of 1:1000 with 1×TBS solution and 50 μL of it was added to every well. The mixture was incubated at room temperature for an hour.
(§5) After removing the solution contained in the wells, the wells were washed 4 times with 200 μL of 1×TBST. SA-HRP was diluted at the ratio of 1:2000 with 1×TBST, then 50 μL of it was added into every well and incubated at room temperature for an hour. Again after removing the solution, they were washed 5 times by adding 200 μL of 1×TBST to each well. 100 μL of TMB solution was added to every well. The plate was developed in the dark for 5-20 minutes. As blue color appeared, the reaction was stopped by adding 100 μL of stop solution to every well, and the plate was read at 450 nm with ELISA Reader (TECAN).
(§6) For the calculation of relative percentage to biotinylated-PIP3, we take the direct absorbance at 450 nm (A450) and set the positive Biotinylated-PIP3 wells as 100 percentage. All the other signals are divided by the Biotinylated-PIP3 average, and multiplied by 100 to show the relative percentage to the positive signal. Relative % to B-PIP3=(A450 of samples include buffer, kinase & inhibitors/A450 of Biotinylated-PIP3 average)×100
(§7) IC50 values were calculated from the values read at 450 nm by using Graphpad Prism 5 software.

[2] = molecular target: PI3Kγ (Homo sapiens (Human), UniProt P48736)
PI3Kγ, sequence (P48736 whole entry, species assumed): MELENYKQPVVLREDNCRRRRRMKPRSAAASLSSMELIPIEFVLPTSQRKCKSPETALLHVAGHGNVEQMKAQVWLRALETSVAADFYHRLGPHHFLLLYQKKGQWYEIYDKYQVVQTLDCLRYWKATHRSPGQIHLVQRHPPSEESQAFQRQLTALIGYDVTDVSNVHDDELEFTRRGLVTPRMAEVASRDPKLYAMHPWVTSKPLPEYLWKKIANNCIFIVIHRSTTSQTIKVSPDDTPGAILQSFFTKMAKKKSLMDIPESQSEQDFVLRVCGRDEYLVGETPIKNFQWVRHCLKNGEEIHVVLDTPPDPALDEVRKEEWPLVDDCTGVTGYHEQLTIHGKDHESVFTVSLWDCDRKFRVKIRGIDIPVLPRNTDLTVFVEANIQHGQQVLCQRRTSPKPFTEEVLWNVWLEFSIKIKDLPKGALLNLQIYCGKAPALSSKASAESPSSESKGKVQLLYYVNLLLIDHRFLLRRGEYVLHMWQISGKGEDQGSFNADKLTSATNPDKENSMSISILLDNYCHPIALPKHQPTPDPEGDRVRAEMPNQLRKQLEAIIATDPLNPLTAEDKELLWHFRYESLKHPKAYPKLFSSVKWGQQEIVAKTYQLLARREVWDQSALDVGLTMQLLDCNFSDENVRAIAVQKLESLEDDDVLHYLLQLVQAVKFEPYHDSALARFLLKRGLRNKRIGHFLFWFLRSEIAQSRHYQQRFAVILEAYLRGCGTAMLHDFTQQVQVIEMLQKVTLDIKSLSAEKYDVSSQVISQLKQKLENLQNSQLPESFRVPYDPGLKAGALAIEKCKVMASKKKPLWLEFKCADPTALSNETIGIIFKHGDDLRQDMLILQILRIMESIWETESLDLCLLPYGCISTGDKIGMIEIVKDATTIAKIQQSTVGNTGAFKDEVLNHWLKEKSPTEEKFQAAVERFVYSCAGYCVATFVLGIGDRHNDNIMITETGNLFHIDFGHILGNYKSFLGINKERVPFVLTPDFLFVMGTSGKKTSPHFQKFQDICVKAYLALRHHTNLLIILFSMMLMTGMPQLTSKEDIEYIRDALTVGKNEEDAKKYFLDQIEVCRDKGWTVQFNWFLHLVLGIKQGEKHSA
Excerpt: as §1, §2, §3, §4, §5, §6, §7

[3] = molecular target: PI3Kδ (Homo sapiens (Human), UniProt O00329)
PI3Kδ, sequence (O00329 whole entry, species assumed): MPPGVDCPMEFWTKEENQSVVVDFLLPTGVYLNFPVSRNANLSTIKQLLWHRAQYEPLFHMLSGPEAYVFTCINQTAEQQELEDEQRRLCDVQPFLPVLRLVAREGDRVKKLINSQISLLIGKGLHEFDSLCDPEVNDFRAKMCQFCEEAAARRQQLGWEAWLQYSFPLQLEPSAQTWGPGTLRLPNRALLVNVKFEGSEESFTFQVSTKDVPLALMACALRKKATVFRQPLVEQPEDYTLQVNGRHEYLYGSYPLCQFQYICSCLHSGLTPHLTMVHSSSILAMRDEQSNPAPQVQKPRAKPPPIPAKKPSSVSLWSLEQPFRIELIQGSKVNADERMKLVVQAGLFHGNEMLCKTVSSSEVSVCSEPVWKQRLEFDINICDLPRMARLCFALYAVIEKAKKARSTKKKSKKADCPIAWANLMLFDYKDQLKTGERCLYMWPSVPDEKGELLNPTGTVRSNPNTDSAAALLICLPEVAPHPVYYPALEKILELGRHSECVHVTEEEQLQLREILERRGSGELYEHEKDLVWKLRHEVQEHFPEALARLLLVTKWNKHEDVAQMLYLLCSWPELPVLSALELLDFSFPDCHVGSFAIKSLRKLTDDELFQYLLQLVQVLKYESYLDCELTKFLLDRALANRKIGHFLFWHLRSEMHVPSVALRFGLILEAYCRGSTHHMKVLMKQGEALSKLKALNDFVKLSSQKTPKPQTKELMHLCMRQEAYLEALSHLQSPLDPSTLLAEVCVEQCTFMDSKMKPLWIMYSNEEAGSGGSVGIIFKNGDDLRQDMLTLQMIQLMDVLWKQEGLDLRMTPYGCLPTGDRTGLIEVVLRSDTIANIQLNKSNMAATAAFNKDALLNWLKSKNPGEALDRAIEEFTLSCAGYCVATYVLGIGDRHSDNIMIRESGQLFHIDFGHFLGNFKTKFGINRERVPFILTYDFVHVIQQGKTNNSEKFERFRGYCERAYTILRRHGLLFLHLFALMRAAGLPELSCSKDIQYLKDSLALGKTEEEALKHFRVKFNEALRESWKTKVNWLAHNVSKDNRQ
PI3Kδ, sequence (P27986 whole entry partner, species assumed): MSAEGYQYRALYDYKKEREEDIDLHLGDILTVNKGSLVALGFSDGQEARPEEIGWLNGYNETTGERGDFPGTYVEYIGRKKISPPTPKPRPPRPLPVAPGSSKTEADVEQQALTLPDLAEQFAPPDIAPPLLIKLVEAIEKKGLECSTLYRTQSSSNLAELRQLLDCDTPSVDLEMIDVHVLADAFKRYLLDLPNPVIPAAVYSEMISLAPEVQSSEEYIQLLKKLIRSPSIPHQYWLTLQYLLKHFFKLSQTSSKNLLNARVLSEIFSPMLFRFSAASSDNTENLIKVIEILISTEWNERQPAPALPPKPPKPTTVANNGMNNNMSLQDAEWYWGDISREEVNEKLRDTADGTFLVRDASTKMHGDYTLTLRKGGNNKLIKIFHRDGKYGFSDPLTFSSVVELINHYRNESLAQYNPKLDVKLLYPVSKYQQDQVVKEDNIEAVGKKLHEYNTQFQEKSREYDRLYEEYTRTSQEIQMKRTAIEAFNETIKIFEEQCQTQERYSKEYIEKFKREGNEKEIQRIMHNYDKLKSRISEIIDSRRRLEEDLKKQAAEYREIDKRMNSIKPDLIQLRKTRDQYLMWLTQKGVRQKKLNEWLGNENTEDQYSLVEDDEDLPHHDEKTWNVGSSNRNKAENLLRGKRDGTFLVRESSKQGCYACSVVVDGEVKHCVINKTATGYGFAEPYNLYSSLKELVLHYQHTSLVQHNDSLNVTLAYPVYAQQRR
Excerpt: as §1, §2, §3, §4, §5, §6, §7

PI3Kα, sequence (P42336 whole entry, looked up, species assumed): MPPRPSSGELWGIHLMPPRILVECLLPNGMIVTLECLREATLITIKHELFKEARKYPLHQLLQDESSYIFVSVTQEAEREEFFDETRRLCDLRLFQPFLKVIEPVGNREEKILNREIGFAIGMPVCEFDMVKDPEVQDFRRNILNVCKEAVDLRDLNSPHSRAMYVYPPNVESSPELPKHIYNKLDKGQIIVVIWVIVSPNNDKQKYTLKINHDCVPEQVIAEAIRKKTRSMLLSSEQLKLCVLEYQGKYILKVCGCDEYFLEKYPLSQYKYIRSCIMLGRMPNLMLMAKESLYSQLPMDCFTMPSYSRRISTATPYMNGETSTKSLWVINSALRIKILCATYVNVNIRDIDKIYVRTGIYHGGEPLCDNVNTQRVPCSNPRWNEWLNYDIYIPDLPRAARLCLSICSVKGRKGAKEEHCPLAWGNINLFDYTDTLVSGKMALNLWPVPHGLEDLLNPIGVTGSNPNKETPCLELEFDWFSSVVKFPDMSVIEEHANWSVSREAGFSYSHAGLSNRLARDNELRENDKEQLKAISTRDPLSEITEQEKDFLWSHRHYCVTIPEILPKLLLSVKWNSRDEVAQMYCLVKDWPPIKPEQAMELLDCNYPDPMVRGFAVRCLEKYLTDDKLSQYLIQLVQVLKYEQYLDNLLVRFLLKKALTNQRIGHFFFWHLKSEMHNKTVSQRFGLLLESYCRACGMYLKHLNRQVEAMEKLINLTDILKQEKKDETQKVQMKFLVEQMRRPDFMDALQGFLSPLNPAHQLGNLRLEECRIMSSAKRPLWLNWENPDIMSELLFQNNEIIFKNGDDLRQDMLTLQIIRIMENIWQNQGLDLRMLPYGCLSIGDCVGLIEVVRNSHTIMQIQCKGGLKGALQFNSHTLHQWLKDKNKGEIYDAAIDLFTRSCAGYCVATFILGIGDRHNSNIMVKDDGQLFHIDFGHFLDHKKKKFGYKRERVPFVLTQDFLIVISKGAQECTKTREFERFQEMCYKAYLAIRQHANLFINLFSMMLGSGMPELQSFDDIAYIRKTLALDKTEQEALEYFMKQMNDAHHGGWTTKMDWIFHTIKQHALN
PI3Kα, sequence (P27986 whole entry partner, looked up, species assumed): as the sequence (P27986 whole entry partner, species assumed) above

Structure (SMILES)	IC50 [1] [µM]	IC50 [2] [µM]	IC50 [3] [µM]
O=S(=O)(Nc1cncc(-c2ccc3ncnc(Oc4cccnc4)c3n2)c1)c1ccccc1	< 10	< 1	< 10
O=S(=O)(Nc1cncc(-c2ccc3ncnc(OC4CCOCC4)c3n2)c1)c1ccccc1	< 10	< 1	< 10
CN1CCC(Oc2ncnc3ccc(-c4cncc(NS(=O)(=O)c5ccccc5)c4)nc23)CC1	< 10	< 10	< 10
O=S(=O)(Nc1cc(-c2ccc3ncnc(NC4CCOCC4)c3n2)cnc1Cl)c1ccc(F)cc1F	< 10	< 10	< 10

Continued, values first:

IC50 [1] [µM]	IC50 [2] [µM]	IC50 [3] [µM]	Structure (SMILES)
< 1	< 1	< 1	O=S(=O)(Nc1cc(-c2ccc3ncnc(OC4CCOCC4)c3n2)cnc1Cl)c1ccc(F)cc1F
< 1	< 10	< 1	CN1CCC(Oc2ncnc3ccc(-c4cnc(Cl)c(NS(=O)(=O)c5ccc(F)cc5F)c4)nc23)CC1
